Results from US20190054054A1, “Methods reducing or preventing oxidation of high density lipoprotein (HDL)” (Amarin Pharmaceuticals Ireland Limited, priority 2017, published 2019).

Legend:
HUVECs exposed to oxLDL = assay: NO and ONOO^− release from HUVECs exposed to oxLDL, nanosensors (Example 8); assay type: cell-based, human
Description: Human umbilical vein endothelial cells (HUVECs) were isolated into primary cultures from female donors by Clonetics (San Diego, Calif.) and purchased as proliferating cells. All cell culture donors were healthy, with no pregnancy or prenatal complications. […] The confluent cells (4 to 5×10^5 cells/35 mm dish) were placed with minimum essential medium containing 3 mM L-arginine and 0.1 mM BH4 [(6R)-5,6,7,8-tetrahydrobiopterin]. Before experimental use, the cells (from second or third passage) were rinsed twice with Tyrode-HEPES buffer with 1.8 mM CaCl2).
The omega-3 fatty acids (O3FAs) cis-5,8,11,14,17-eicosapentaenoic acid (EPA) and docosahexaenoic acid (DHA) were purchased from Sigma-Aldrich (St. Louis, Mo.) and prepared initially at 11 mM in redistilled ethanol. Primary and secondary O3FA stock solutions were prepared and stored under argon at −20° C.
The oxLDL causes eNOS uncoupling and endothelial dysfunction to reproduce disease-like conditions. 25 Venous blood from healthy normolipidemic volunteers was collected into Na-EDTA (1 mg/mL blood) vacuum tubes after a 12-hour fast. Plasma was immediately separated by centrifugation at 3,000 g for 10 minutes at 4° C.
Tris-NaCl buffer was added to the dialyzed LDL to adjust the protein concentration to 30 mg/mL. A 1-mL aliquot of 20 μM CuSO4 was added to 1 mL of dialyzed normal LDL.
Oxidation was monitored by the use of measurements of TBARS. Briefly, LDL was incubated with thiobarbituric acid (0.5 wt/vol, in H2SO4, 50 mM) for 30 minutes at 100° C. […] TBARS concentration was determined as malondialdehyde (MDA) equivalents with the use of an MDA standard curve.
Concurrent measurements of NO and ONOO^− were performed with tandem electrochemical nanosensors combined into one working unit with a total diameter of 200-400 nm. Their design was based on previously developed and chemically modified carbon-fiber technology. Each of the nanosensors was made by depositing a sensing material on the tip of a carbon fiber (length 4 to 5 μm, diameter 100-200 nm). The fibers were sealed with nonconductive epoxy and electrically connected to copper wires with conductive silver epoxy. Conductive films of polymeric Ni(II) tetrakis (3-methoxy-4-hydroxyphenyl) porphyrin and Mn(III) [2.2] paracyclophanylporphyrin were used for the NO and ONOO^− sensors, respectively.
The amperometric method (with a response time of 0.1 ms) provides a quantitative signal (current) that is directly proportional to changes (from basal levels) in NO or ONOO^− concentration. Amperometric measurements were performed with a Gamry III double-channel potentiostat. Basal NO or ONOO^− levels were measured by differential pulse voltammetry in separate experiments.
All measurements of NO and ONOO^− were performed on intact endothelial cells. The NO/ONOO^− nanosensor module was positioned 5±2 μm from the surface of each individual endothelial cell using a computer-controlled M3301 micromanipulator (x-y-z resolution of 0.2 μm) and microscope (both from World Precision Instruments, Berlin, Germany) fitted with a CD camera.
Endothelial basal media was used for all the treatments. Controls were supplied with an equivalent volume of endothelial basal media.
Data are presented as mean±S.D. for (N) separate samples or experiments. Differences between groups were analyzed using the two-tailed, Student t-test (for comparisons between only two groups) or ANOVA followed by Student-Newman-Keuls multiple comparisons post-hoc analysis (for comparisons between three or more groups). Only differences with probability values less than 0.05 were considered significant.

[1] = Glucose-induced membrane lipid peroxidation (LOOH, CHOD-iodide assay) in DLPC/cholesterol vesicles (Examples 4 and 5); assay type: biochemical; conditions: for inhibition of the peroxidative effects of glucose (LOOH formation) / effect on LOOH formation / lipid peroxidation (FIG. 3): 1:30 drug-to-phospholipid mole ratio; for effect on LOOH formation / lipid peroxidation (FIG. 3): glucose, 72- and 96-hour time points
Description: Vitamin E (α-tocopherol) was also purchased from Sigma-Aldrich and prepared in ethanol at 1.0 mM (e=[…] at 294 nm) just prior to experimental use. […] All test compounds were further diluted in ethanol or aqueous buffer as needed. Glucose was prepared in saline buffer (0.5 mM HEPES, 154 mM NaCl, pH 7.3) at 11.0 mM (200 mg/dL). CHOD-iodide color reagent (stock) was prepared, with slight modification, as described by from El-Saadani et al. (J. […] Samples were shell-dried under nitrogen gas and placed under vacuum for 1 h to remove residual solvent. […] Lipid suspensions were then vortexed for 3 min at ambient temperature to form MLVs. All MLV samples were subjected to time-dependent autoxidation by incubating at 37° C. in an uncovered, shaking water bath. This method allows lipid peroxidation to occur gradually without requiring the use of exogenous initiators. Small aliquots (5-100 μL) of each sample were removed, immediately following MLV preparation (0 hour) and after exposing samples to oxidative conditions for 72 or 96 hour, and combined with 1.0 mL of activated CHOD-iodide color reagent. Aliquot volume was reduced with each successive time point to ensure that spectrophotometric readings were within the optimal adsorption range. Test samples were covered and incubated in darkness at room temperature for at least 4 hr. Sample absorbances were then measured against a CHOD blank at 365 nm using a Beckman DU-640 spectrophotometer. The CHOD colorimetric assay is based on the oxidation of iodide (I^−) by lipid hydroperoxide (LOOH) to form triiodide (I3^−), the quantity of which is directly proportional to the amount of LOOH present in the lipid sample. The molar absorptivity (ε) of I3^− is 2.46×10^4 M^−1 cm^−1 at 365 nm. An experiment was conducted to compare the ability of EPA to prevent lipid hydroperoxide formation in model membranes treated with glucose to two other 20-carbon fatty acids: eicosanoic acid (“EA,” also referred to as arachidic acid, C20:0) and eicosatrienoic acid (“ETE,” C20:3, n-3). All MLV samples were subjected to time-dependent autoxidation by incubating at 37° C. in an uncovered, shaking water bath. This method allows lipid peroxidation to occur gradually without requiring the use of exogenous initiators. Small aliquots (5-100 μL) of each sample were removed, immediately following MLV preparation (0 hr) and after exposing samples to oxidative conditions for 72 or 96 hr, and combined with 1.0 mL of activated CHOD-iodide color reagent. Aliquot volume was reduced with each successive time point to ensure that spectrophotometric readings were within the optimal adsorption range. Test samples were covered and incubated in darkness at room temperature for at least 4 hr. Sample absorbances were then measured against a CHOD blank at 365 nm using a Beckman DU-640 spectrophotometer. The CHOD colorimetric assay is based on the oxidation of iodide (I^−) by lipid hydroperoxide (LOOH) to form triiodide (I3^−), the quantity of which is directly proportional to the amount of LOOH present in the lipid sample. The molar absorptivity (ε) of I3^− is 2.46×10^4 M^−1 cm^−1 at 365 nm.

[2] = oxLDL 20 min, then treatment for 1 hour, EPA 10 μM, ATM 1.0 μM
[3] = treatment 'EPA + oxLDL' (Table 1)

| Compound | NO (HUVECs exposed to oxLDL; [2]) [nM] | NO/ONOO^− Ratio (HUVECs exposed to oxLDL; [2]) | ONOO^− (HUVECs exposed to oxLDL; [2]) | inhibition of the peroxidative effects of glucose (LOOH formation) ([1]; glucose 200 mg/dL, 72 hours) [%] | inhibition of the peroxidative effects of glucose (LOOH formation) ([1]; glucose 200 mg/dL, 96 hours) [%] | effect on LOOH formation / lipid peroxidation (FIG. 3) [1] | membrane LOOH formation, dose dependence ([1]; EPA at 1.0 and 5.0 μM, glucose-treated) | LOOH formation compared to vehicle only, glucose only, glucose and EA, or glucose and ETE ([1]; Example 5, 72 and 96 hr) | antioxidant effect, separate treatments ([1]; each at 1.0 μM, glucose 200 mg/dL, 96 hours) | increase in NO release in ECs exposed to oxLDL (HUVECs exposed to oxLDL; as compared to vehicle, EPA 10 μM, ATM 1.0 μM) [%] | NO (HUVECs exposed to oxLDL; [3]) | NO/ONOO^− Ratio (HUVECs exposed to oxLDL; [3]) | ONOO^− (HUVECs exposed to oxLDL; [3]) |
| --- | --- | --- | --- | --- | --- | --- | --- | --- | --- | --- | --- | --- | --- |
| CC/C=C\C/C=C\C/C=C\C/C=C\C/C=C\C/C=C\CCC(=O)O [DHA, docosahexaenoic acid] | 567 ± 103 | 3.39 ± 0.72 | 167 ± 18 |  |  |  |  |  |  |  |  |  |  |
| CC/C=C\C/C=C\C/C=C\C/C=C\C/C=C\CCCC(=O)O [EPA, cis-5,8,11,14,17-eicosapentaenoic acid] | 423 ± 163 | 2.24 ± 0.91 | 189 ± 25 | 88 | 86 | significantly inhibited LOOH formation | inhibit membrane LOOH formation in a dose-dependent manner | significantly less LOOH formation | separate and potent antioxidant effects | 45 | 663 ± 50 | 2.68 ± 0.28 | 247 ± 17 |
| Cc1ccc(C)c(OCCCC(C)(C)C(=O)O)c1 [gemfibrozil] | 192 ± 34 | 0.72 ± 0.16 | 266 ± 34 |  |  |  |  |  |  |  |  |  |  |
| O=C(O)c1cccnc1 [niacin, nicotinic acid] | 431 ± 100 | 2.00 ± 0.52 | 215 ± 25 |  |  |  |  |  |  |  |  |  |  |
| Cc1c(C)c2c(c(C)c1O)CC[C@@](C)(CCC[C@H](C)CCC[C@H](C)CCCC(C)C)O2 [vitamin E, α-tocopherol] |  |  |  |  |  | no significant effect on lipid peroxidation |  |  |  |  |  |  |  |
